Test results from patent publication US5684023A, “Benzofuranyl -and benzothienyloxazolidinones” (Bayer Aktiengesellschaft, priority 1994, dated 1997).
In brackets after ≈: the same amount, converted by molar mass.

What was measured:
Experiment in all cases: MIC, serial dilution (Iso-Sensitest agar / microdilution in BH medium)
Format in all cases: cell-based
Staph 25701 = conditions: 37° C., about 20 hours
Experimental: (§1) The minimum inhibitory concentrations (MIC) were determined by serial dilution methods on Iso-Sensitest agar (Oxoid). For each test substance, a number of agar plates were prepared which contained a decreasing concentration of the active compound on double dilution in each case. The agar plates were inoculated with a multipoint inoculator (Denley). For inoculation, overnight cultures of the bacilli were used which were previously diluted such that each inoculation point contained about 10^4 colony-forming particles. The inoculated agar plates were incubated at 37° C., and the bacterial growth was read off after about 20 hours. The MIC value (μg/ml) indicates the lowest active compound concentration at which no growth could be detected using the naked eye. The MIC values were determined in BH medium with the aid of the microdilution method. Each test substance was dissolved in the nutrient medium. A concentration series of the test substances was prepared in the microtiter plates by serial dilution. For inoculation, overnight cultures of the bacilli were used which had previously been diluted 1:250 in the nutrient medium. 100 μl each of inoculation solution were added to 100 μl of the diluted, active compound-containing nutrient solutions. The microtiter plates were incubated at 37° C. and read off after about 20 hours. The MIC value (μg/ml) indicates the lowest active compound concentration at which no growth could be detected.

Staph. 133 = conditions: 37° C., about 20 hours
Experimental: as §1

Psdm. Bonn = conditions: 37° C., about 20 hours
Experimental: as §1

Staph. 48N = conditions: 37° C., about 20 hours
Experimental: as §1

E. coli Neumann = conditions: Escherichia coli, 37° C., about 20 hours
Experimental: as §1

Staph 9TV = conditions: 37° C., about 20 hours
Experimental: as §1

Klebs. 57 USA = conditions: 37° C., about 20 hours
Experimental: as §1

MIC (Staph 25701)	MIC (Staph. 133)	MIC (Psdm. Bonn)	MIC (Staph. 48N)	MIC (E. coli Neumann)	MIC (Staph 9TV)	MIC (Klebs. 57 USA)	Compound
2 µg/mL (≈ 6.89 µM)	4 µg/mL (≈ 13.8 µM)	> 64 µg/mL	4 µg/mL (≈ 13.8 µM)	> 64 µg/mL	2 µg/mL (≈ 6.89 µM)	> 64 µg/mL	CC(=O)NC[C@H]1CN(c2ccc3sccc3c2)C(=O)O1 [Example 9, (5S)-3-[5-Benzo[b]thiophenyl]5-acetylamino-methyl-oxazolidin-2-one]
1 µg/mL (≈ 3.47 µM)	1 µg/mL (≈ 3.47 µM)	> 64 µg/mL	1 µg/mL (≈ 3.47 µM)	> 64 µg/mL	0.5 µg/mL (≈ 1.73 µM)	> 64 µg/mL	CC(=O)NC[C@H]1CN(c2ccc3oc(C)cc3c2)C(=O)O1 [Example 16]
16 µg/mL (≈ 49.6 µM)	16 µg/mL (≈ 49.6 µM)	> 64 µg/mL	16 µg/mL (≈ 49.6 µM)	> 64 µg/mL	8 µg/mL (≈ 24.8 µM)	> 64 µg/mL	CC(=O)NC[C@H]1CN(c2ccc3c(c2)C=CS3(=O)=O)C(=O)O1 [Example 27]
